≈ marks a conversion by molar mass, not a printed value. Calls of active or inactive are those of the source. The calls are words filed in the database; no cut-off is given here.
How the values were obtained:
PBMC = assay: Inhibition of LPS-induced TNFalpha production in PBMC; format: functional, cell-based; details: Homo sapiens
[1] = AUC(1 to 4 hrs) in mouse at 10 mg/kg, po; format: ADME, organism-based; parameters: time upper 4 hr, time lower 1 hr, dose 10 mg/kg, route oral; details: plasma
[2] = target: T1, Inhibitor of nuclear factor kappa-B kinase subunit alpha (Homo sapiens, UniProt O15111)
T1 sequence (O15111 whole entry): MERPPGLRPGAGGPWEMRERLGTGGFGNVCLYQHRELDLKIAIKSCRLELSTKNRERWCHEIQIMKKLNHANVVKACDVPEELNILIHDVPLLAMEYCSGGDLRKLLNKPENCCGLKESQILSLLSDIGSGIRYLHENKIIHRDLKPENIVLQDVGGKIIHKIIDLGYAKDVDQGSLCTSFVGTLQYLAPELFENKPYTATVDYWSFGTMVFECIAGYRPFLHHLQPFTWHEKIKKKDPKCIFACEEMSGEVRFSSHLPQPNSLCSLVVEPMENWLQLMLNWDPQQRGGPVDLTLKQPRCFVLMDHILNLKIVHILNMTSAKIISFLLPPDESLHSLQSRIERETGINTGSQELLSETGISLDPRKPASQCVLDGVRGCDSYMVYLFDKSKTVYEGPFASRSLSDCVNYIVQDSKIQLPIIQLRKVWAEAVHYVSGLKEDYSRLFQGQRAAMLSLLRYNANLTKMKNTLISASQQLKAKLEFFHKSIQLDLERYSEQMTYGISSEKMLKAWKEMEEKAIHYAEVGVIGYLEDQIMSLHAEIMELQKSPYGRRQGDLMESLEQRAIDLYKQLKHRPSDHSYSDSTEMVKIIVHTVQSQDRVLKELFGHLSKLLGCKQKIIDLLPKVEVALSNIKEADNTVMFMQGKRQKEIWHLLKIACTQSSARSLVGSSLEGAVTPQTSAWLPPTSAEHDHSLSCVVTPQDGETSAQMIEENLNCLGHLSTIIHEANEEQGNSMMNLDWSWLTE

Liver = assay: Metabolic stability in mouse liver microsomes; format: ADME, Microsome
[3] = target: T2, Inhibitor of nuclear factor kappa-B kinase subunit beta (Homo sapiens, UniProt O14920)
T2 sequence (O14920 whole entry): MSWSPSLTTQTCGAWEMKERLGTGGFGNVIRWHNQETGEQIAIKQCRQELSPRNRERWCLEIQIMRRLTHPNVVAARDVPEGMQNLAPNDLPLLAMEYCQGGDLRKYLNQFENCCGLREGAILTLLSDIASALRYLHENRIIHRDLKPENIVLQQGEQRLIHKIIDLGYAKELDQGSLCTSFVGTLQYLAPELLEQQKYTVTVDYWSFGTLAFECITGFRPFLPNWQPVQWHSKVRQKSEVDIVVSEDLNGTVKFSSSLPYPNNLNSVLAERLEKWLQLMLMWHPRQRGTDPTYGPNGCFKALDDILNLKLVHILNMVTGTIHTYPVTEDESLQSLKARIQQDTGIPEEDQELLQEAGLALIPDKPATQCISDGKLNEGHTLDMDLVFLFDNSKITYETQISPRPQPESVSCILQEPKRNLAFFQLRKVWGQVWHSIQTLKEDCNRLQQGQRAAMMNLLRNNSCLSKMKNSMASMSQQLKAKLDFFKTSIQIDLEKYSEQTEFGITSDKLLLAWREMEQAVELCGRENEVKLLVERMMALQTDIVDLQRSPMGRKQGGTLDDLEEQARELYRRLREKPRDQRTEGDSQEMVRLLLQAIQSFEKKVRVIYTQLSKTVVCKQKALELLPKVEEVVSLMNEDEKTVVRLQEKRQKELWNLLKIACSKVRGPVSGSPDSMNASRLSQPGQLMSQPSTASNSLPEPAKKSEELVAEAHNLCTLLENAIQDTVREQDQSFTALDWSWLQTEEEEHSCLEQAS

[4] = Cytotoxicity against Jurkat cells by Alamar blue assay; details: human, Jurkat cells
[5] = Tmax in mouse at 10 mg/kg, po; format: ADME, organism-based; parameters: dose 10 mg/kg, route oral; details: in vivo
[6] = Cmax in mouse at 10 mg/kg, po; format: ADME, organism-based; parameters: dose 10 mg/kg, route oral; details: in vivo
Jurkat = assay: Inhibition of TNF-alpha-induced response in Jurkat cells; details: Homo sapiens
Liver microsomes = assay: Metabolic stability in human liver microsomes; format: ADME, Microsome
[7] = target: Insulin-like growth factor 1 receptor (Homo sapiens) (UniProt P08069); assay: Inhibition of IGF1R
Sequence of Insulin-like growth factor 1 receptor (Homo sapiens) (P08069 31-736 limits assumed): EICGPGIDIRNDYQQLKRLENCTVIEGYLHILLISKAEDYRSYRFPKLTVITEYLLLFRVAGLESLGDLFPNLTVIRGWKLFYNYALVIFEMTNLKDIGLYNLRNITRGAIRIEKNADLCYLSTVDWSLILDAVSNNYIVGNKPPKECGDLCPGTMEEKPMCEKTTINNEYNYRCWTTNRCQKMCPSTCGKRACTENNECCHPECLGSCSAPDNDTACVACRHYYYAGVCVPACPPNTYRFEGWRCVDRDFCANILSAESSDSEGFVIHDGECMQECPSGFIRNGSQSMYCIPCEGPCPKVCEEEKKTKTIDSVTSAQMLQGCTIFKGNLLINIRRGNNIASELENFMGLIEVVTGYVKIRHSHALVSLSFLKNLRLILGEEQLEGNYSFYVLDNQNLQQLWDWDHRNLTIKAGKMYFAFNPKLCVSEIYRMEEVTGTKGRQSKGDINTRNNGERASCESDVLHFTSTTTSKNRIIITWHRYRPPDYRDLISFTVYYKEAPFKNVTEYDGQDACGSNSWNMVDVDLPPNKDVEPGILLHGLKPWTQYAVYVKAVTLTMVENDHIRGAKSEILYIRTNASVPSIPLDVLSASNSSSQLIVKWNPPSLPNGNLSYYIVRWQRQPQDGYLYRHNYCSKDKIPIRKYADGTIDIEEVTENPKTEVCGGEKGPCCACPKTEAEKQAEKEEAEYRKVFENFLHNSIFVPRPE
Sequence of Insulin-like growth factor 1 receptor (Homo sapiens) (P08069 741-1367 limits assumed): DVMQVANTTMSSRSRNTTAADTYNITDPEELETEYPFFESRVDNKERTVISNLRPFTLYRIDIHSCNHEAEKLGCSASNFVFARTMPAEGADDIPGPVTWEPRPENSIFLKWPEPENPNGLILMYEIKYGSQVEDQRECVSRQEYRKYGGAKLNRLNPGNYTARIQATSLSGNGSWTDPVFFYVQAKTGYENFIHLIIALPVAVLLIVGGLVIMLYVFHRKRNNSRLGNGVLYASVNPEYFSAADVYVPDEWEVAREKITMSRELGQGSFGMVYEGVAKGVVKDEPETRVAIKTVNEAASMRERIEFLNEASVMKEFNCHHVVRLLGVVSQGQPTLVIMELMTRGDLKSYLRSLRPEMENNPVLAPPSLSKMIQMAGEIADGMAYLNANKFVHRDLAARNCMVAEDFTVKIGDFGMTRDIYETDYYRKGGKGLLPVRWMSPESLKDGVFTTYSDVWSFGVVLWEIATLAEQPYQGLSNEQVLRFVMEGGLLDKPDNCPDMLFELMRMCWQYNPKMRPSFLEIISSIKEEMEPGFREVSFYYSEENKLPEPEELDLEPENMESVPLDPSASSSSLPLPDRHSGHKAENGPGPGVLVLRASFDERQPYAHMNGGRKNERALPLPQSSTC

[8] = target: Epidermal growth factor receptor (Homo sapiens) (UniProt P00533); assay: Inhibition of Her1
Sequence of Epidermal growth factor receptor (Homo sapiens) (P00533 whole entry): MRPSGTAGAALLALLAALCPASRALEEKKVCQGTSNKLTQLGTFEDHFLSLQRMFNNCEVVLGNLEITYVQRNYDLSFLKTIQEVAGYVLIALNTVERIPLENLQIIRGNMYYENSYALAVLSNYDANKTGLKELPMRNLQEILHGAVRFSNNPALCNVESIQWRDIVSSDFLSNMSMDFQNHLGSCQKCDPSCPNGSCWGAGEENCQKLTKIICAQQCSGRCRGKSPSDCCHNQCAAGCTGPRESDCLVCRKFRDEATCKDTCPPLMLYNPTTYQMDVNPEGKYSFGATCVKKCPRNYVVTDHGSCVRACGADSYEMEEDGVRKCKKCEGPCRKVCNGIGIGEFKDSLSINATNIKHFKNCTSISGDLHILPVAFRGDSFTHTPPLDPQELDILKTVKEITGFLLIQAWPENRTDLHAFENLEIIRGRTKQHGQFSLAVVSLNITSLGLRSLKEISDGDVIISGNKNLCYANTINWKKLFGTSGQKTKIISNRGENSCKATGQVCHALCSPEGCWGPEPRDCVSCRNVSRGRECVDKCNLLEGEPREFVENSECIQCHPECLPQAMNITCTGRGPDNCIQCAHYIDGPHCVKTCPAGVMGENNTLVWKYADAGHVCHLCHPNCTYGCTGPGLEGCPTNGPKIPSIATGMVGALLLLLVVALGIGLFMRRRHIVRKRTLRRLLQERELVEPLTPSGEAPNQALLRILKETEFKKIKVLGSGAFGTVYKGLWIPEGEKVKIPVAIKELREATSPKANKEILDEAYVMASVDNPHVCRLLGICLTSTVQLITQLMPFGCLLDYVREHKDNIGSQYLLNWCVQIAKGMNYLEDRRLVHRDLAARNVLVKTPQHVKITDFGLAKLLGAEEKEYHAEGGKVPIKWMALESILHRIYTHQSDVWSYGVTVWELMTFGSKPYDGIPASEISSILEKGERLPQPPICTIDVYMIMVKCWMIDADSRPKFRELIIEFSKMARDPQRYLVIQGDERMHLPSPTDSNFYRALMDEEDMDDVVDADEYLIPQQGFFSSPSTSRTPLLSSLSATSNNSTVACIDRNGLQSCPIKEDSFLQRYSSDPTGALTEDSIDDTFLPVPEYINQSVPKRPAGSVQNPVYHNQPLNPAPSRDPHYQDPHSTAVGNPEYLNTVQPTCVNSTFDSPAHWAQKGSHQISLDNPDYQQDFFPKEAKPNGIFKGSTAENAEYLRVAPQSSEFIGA

[9] = target: Tyrosine-protein kinase Lck (Homo sapiens) (UniProt P06239); assay: Inhibition of LCK
Sequence of Tyrosine-protein kinase Lck (Homo sapiens) (P06239 2-509 limits assumed): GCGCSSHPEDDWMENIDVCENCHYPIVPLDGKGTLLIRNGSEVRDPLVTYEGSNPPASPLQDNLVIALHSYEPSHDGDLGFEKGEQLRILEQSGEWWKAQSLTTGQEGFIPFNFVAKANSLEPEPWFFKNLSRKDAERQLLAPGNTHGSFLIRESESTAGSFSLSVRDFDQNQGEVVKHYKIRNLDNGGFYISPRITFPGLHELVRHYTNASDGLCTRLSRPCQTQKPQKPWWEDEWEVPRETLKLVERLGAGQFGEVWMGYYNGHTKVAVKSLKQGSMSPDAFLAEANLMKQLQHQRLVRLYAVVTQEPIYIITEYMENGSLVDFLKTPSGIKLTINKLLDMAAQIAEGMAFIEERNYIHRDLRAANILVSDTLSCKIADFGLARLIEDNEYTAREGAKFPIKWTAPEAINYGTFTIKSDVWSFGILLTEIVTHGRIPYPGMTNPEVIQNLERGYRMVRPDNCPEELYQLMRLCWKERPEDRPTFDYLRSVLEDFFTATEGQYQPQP

[10] = target: T3, Tyrosine-protein kinase ITK/TSK (Homo sapiens) (UniProt Q08881); assay: Inhibition of EMT
T3 sequence (whole entry): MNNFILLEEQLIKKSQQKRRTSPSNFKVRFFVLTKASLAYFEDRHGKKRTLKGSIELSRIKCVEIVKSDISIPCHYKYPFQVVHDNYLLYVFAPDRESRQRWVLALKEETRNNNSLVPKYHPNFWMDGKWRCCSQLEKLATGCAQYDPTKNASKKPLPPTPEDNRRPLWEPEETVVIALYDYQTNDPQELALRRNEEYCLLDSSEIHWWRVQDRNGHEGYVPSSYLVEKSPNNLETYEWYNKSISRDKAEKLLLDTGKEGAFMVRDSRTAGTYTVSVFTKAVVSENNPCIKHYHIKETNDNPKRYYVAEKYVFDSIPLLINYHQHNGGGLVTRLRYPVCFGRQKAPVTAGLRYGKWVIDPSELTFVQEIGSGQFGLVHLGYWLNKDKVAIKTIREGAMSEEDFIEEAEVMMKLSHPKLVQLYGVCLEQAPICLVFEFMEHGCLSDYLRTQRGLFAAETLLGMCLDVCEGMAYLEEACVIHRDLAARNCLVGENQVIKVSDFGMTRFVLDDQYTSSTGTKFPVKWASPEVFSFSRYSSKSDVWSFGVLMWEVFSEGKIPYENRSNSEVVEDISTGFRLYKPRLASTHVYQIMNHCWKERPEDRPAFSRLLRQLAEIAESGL

[11] = target: MAP kinase p38 (Homo sapiens) (UniProt O15264+Q15759+Q16539+P53778); assay: Inhibition of p38; format: protein assay
[12] = target: Receptor tyrosine-protein kinase erbB-2 (Homo sapiens) (UniProt P04626); assay: Inhibition of Her2
Sequence of Receptor tyrosine-protein kinase erbB-2 (Homo sapiens) (P04626 whole entry): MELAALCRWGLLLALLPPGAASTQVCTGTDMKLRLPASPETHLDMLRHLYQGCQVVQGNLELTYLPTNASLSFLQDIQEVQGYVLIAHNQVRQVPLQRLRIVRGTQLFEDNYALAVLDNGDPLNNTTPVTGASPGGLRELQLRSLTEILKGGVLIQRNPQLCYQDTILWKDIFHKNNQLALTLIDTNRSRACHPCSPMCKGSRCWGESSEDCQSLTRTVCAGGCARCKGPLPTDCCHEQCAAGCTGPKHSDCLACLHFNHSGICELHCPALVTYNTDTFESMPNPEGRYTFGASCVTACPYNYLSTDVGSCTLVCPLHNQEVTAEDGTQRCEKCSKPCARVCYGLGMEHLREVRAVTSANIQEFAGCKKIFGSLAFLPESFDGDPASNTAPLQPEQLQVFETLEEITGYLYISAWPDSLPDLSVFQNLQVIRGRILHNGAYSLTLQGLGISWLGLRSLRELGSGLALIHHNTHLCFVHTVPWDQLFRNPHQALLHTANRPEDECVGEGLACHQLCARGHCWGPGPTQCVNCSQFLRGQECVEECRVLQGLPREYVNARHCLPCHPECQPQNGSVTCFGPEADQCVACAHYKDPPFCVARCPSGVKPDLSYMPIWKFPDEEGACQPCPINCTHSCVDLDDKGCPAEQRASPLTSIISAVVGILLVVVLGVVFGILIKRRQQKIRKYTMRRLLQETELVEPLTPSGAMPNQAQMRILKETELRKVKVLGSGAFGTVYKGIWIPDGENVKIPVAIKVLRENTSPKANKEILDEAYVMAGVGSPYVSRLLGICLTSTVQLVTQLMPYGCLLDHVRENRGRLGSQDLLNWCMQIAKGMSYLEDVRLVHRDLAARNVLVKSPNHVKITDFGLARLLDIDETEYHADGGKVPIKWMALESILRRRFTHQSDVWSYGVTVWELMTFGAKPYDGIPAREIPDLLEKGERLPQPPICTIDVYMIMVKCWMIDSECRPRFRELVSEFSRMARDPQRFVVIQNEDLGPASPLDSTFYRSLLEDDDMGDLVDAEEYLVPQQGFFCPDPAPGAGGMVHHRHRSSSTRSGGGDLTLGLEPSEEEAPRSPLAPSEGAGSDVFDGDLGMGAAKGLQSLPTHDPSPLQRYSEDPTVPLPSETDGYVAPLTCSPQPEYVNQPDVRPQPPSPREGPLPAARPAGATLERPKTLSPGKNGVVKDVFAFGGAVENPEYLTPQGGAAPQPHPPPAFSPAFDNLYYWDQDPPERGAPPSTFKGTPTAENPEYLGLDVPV

Homo sapiens [13] = species on record: Homo sapiens; assay: Inhibition of VEGF
Homo sapiens [14] = species on record: Homo sapiens; assay: Inhibition of PKA
[15] = target: T4, Inhibitor of nuclear factor kappa-B kinase subunit epsilon (Homo sapiens) (UniProt Q14164); assay: Inhibition of IKKepsilon
T4 sequence (whole entry): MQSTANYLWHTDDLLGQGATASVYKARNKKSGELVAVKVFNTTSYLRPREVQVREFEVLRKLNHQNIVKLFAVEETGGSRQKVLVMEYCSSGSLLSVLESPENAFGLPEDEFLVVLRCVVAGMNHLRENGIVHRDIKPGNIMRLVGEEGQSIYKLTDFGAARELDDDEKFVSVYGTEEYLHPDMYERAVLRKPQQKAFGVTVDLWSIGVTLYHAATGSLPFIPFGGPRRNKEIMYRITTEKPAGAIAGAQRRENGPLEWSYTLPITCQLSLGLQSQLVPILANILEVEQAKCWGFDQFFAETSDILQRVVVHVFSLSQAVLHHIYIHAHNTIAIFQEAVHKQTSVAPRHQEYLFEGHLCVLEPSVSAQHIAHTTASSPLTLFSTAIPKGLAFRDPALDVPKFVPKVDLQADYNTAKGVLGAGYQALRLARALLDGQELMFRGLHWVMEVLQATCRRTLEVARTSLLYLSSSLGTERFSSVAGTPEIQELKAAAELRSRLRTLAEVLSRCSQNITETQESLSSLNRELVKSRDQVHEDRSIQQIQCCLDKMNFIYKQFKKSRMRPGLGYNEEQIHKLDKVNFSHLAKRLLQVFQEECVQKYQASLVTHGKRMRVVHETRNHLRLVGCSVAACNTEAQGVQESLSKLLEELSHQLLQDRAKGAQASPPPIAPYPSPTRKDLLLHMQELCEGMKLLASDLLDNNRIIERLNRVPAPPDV

[16] = Aqueous solubility in sodium phosphate buffer at pH 6.5; format: physicochemical

Structure (SMILES) | IC50 [2] [nM] | IC50 [3] [nM] | CC50 [4] [nM] | EC50 (Jurkat) [nM] | also measured
CNc1nc2cc(-c3cccc(CC(N)=O)c3)sc2n2c(C)cnc12 | 680 | 8 | > 100000 | 360 | EC50 (PBMC): 65 nM; AUC(0-t) [1]: 0.63 µM·h; Stability (Liver): 0.13 nmol/mg/min; Tmax [5]: 30 min; Cmax [6]: 290 nM; Stability (Liver microsomes): 0.062 nmol/mg/min
Cc1cnc2c(NCCN)nc3cc(-c4ccccc4)sc3n12 | 910 | 22 | 77000 | > 100000 | Activity [7]: inactive; Activity [8]: inactive; Activity [9]: inactive; Activity [10]: inactive; Activity [11]: inactive; Activity [12]: inactive; Activity (Homo sapiens [13]): inactive; Activity (Homo sapiens [14]): inactive; Activity [15]: inactive
CNc1nc2cc(-c3cccc(CN)c3)sc2n2c(C)cnc12 | 220 | 8.5 | 19000 | 5880 | Activity [15]: inactive
CNC(=O)C(N)Cc1cccc(-c2cc3nc(NC)c4ncc(C)n4c3s2)c1 (racemic) | 330 | 36 | 68000 | 470 | solubility [16]: 42 µg/mL (≈ 106 µM)
CNc1nc2cc(-c3cccc(CNC(N)=O)c3)sc2n2c(C)cnc12 | 260 | 43 | > 100000 | 340 | EC50 (PBMC): 68 nM; AUC(0-t) [1]: 0.38 µM·h; Stability (Liver): 0.221 nmol/mg/min; Tmax [5]: 30 min; Cmax [6]: 150 nM; Stability (Liver microsomes): 0.066 nmol/mg/min
CNc1nc2cc(-c3cccc(CCNC(N)=O)c3)sc2n2c(C)cnc12 | 130 | 18 | > 100000 | 550 | Activity [15]: inactive
CNc1nc2cc(-c3cccc(CNC(C)=O)c3)sc2n2c(C)cnc12 | 770 | 38 | > 100000 | 2330 | 
CNc1nc2cc(-c3cccc(CCC(N)=O)c3)sc2n2c(C)cnc12 | 1210 | 19 | > 100000 | 810 | 
Cc1cnc2c(NCCN3CCCCC3)nc3cc(-c4ccccc4)sc3n12 | 3130 | 40 | 15000 | 13400 | Activity [7]: inactive; Activity [8]: inactive; Activity [9]: inactive; Activity [10]: inactive; Activity [11]: inactive; Activity [12]: inactive; Activity (Homo sapiens [13]): inactive; Activity (Homo sapiens [14]): inactive; Activity [15]: inactive
CNc1nc2cc(-c3cccc(C(=O)O)c3)sc2n2c(C)cnc12 | 14400 | 190 | > 100000 | 65700 | 
CCNc1nc2cc(-c3ccccc3)sc2n2c(C)cnc12 | 1990 | 260 | > 100000 | 5730 | 
Cc1cnc2c(NCCN)nc3cc(-c4ccccc4CO)sc3n12 | 4400 | 130 | > 100000 | 15600 | 
COc1cccc(-c2cc3nc(NCCN)c4ncc(C)n4c3s2)c1 | 690 | 44 | 3500 | 29200 | 
Cc1cnc2c(NCCN)nc3cc(-c4ccccn4)sc3n12 | 1240 | 190 | 13000 | > 100000 | 
CNc1nc2cc(-c3cccc(CNS(N)(=O)=O)c3)sc2n2c(C)cnc12 | 170 | 3 | > 100000 | 270 | EC50 (PBMC): 95 nM; Stability (Liver): 0.231 nmol/mg/min; Tmax [5]: 60 min; Stability (Liver microsomes): 0.035 nmol/mg/min
CNc1nc2cc(-c3cccc(C[C@H](N)C(N)=O)c3)sc2n2c(C)cnc12 | 260 | 14 | > 100000 | 450 | 
CNc1nc2cc(-c3cccc(C(N)=O)c3)sc2n2c(C)cnc12 | > 30000 | 290 | > 100000 | 35600 | 
CNc1nc2cc(-c3cccc(CCN)c3)sc2n2c(C)cnc12 | 650 | 45 | 21000 | 6730 | 
Cc1cnc2c(NCCN(C)C)nc3cc(-c4ccccc4)sc3n12 | 1170 | 95 | > 100000 | > 30000 | 
CNc1nc2cc(-c3cccc(CCNS(N)(=O)=O)c3)sc2n2c(C)cnc12 | 440 | 7 | > 100000 | 920 | 
Cc1cnc2c(NCCNC=O)nc3cc(-c4ccccc4)sc3n12 | 7990 | 230 | > 100000 | 3160 | 
Cc1cnc2c(NCC(N)=O)nc3cc(-c4ccccc4)sc3n12 | > 25000 | 360 | > 100000 | > 100000 | 

Source: ChEMBL document CHEMBL1140018, “Synthesis and structure-activity relationship of imidazo(1,2-a)thieno(3,2-e)pyrazines as IKK-beta inhibitors” (Bioorg Med Chem Lett, 2007)
